Consider 2 compounds from patent US9687493B2, “Use of NK-1 receptor antagonists for treating hypomagnesemia, neurogenic inflammation, and cardiac dysfunction associated with EGFR-blocking drugs” (THE GEORGE WASHINGTON UNIVERSITY, priority 2014, dated 2017).

SMILES strings stand for the structures.

The conditions of data set [1]: rat, in vivo. As for the experimental part:
Experiments on animals were conducted in accordance with the principles given in the US Department of Health and Human Services Guide for the Care and Use of Laboratory Animals and were approved by The George Washington University Institutional Animal Care and Use Committee. Male Sprague-Dawley rats (125-150 g) were purchased from Hilltop Lab Animals, Inc. (Scottdale, Pa.). After 1 week of quarantine, all age-matched rats were placed on an ad libitum Mg normal diet (25 mmole magnesium oxide/kg food regarded as 100% recommended daily allowance for rodents) obtained from Harlan-Teklad (Madison, Wis.) containing extracted casein as the diet base supplemented with essential vitamins and nutrients; or the same diet supplemented with erlotinib (OSI Pharmaceuticals, LLC, Northbrook, Ill. 60062, USA) to obtain a starting dose of 10 mg/kg/day, Emend® (as aprepitant, Merck & Co., INC. USA) to obtain a starting dose of 2 mg/kg/day, or both agents at these doses. Individually-housed rats were weighed and food consumption recorded daily to obtain actual drug dosage: time-range average erlotinib dose over 9 weeks was 7.07 mg/kg/day, and time-range average Emend dose over 9 weeks was 1.41 mg/kg/day. Rats had free access to distilled-deionized water, and were on a 12 h light/dark cycle for up to 9 weeks. […]

The test system of data set [2] is neutrophils. As for the experimental part:
(§1) At periodic intervals, blood was collected (˜0.5 ml) aseptically from the tail of anaesthetized rats (2% isoflurane, EZ Anesthesia Chamber with nose cone)(13, 14) in sterile microtainer plasma separator tubes containing heparin and the protease inhibitor, aprotinin (Sigma Chemicals, St. Louis Mo.) to yield final blood concentrations of 10.74 units/ml and 0.016 units/ml, respectively. For subsequent samplings, the scab was carefully removed, and the process was repeated. Plasma was obtained after centrifugation (12,000 rpm, 2 min, RT, IDEXX StatSpin VT, Iris International, Inc., Westwood, Mass.). Tail bleed samples were used for assessment of plasma Mg, and substance P levels. Sacrifice blood samples (˜8 ml collected in heparin plus aprotinin containing BD vacutainer SST tubes) were taken from anaesthetized, heparinized (0.3-0.4 ml 358 units/ml heparin in 0.9% NaCl, i.p.) rats from either the vena cava or by cardiac puncture, and were centrifuged (3,500 rpm, 10 min, RT). In addition to the above plasma parameters, sacrifice plasma was also assayed for 8-isoprostane levels, and the whole blood samples were processed for neutrophil isolation and assessment of superoxide anion production.
At sacrifice, whole blood (3 ml) samples were obtained; neutrophils were isolated by a step-gradient centrifugation method (13,−16). Superoxide anion production from neutrophils (0.5-0.75×10^6/ml) with (stimulated) or without (basal) PMA (phorbol myristate acetate, 100 ng/ml) was assayed in a phosphate buffer (pH 7.6) containing 5 mM glucose, 1 mM CaCl2, 1 mM MgCl2, and 75 μM cytochrome c±50 μg SOD. Superoxide generation was estimated as SOD-inhibitable reduction of cytochrome c using the extinction coefficient: E550=2.1×10^4M^−1cm^−1.
Hypomagnesemia alone in rodents can promote neutrophil free radical generating activity (Mak et al., Exp. & Clin. Cardiol. 2011, 16(4):121-124; Mak et al., Magnesium Res 2003, 16(2):91-97). In the present study, blood was sampled from rats treated with erlotinib (starting 10 mg/kg/day, oral) and/or Emend (aprepitant, starting 2 mg/kg/day, oral) at 9 weeks of exposure. Circulating neutrophil basal superoxide generating activity was determined as SOD-inhibitable reduction of cytochrome c (FIG. 3A). Plasma 8-isoprostane was assessed by a colorimetric ELISA kit (FIG. 3B). Values for erlotinib±Emend rats were compared to time-matched controls, and are means±SEM of 4-6 rats per group. ** p<0.01 versus control; ++p<0.01 versus erlotinib alone. […] Enhanced systemic oxidative stress, as represented by increased total plasma 8-isoprostane content (FIG. 3B), was prominent by 9 weeks (210% increase, p<0.01).

In data set [3] the test system is nitro-tyrosine in cardiac tissue. As to the kind of experiment: Cardiac nitro-tyrosine immunohistochemical assessment. Format: in vivo, Sprague-Dawley rats. The procedure: Cardiac tissue was rapidly excised, rinsed in saline, embedded in OCT compound, quickly frozen and kept at […] until used. Cryosections, 5 um thick, were stained by an indirect, immunohistochemical staining method (13) using rabbit anti-rat Nitrotyrosine antibody (5 ug/ml; Millipore, Billerica, Mass.) and the Vecta-Stain Elite ABC kit immunoperoxidase system (Vector Laboratories, Burlingame, Calif.). Samples were examined under an Olympus BX60 microscope, and multiple images were taken with a digital camera (Evolution Color MP; Media Cybernetics, Silver Spring, Md.). Briefly, fresh frozen sections were fixed in 10% formaldehyde, washed in PBS, incubated with 0.3% hydrogen peroxide in methanol for 30 min to block endogenous peroxidase, washed in PBS and incubated overnight at 4 C with rabbit anti nitrotyrosine antibody, which was applied on every slide except negative control. ABC kit reagents for horseradish peroxidase and 3-3′diaminebenzidine (DAB) were used to visualize the antigen-antibody reaction product as brown color. The sections were counterstained with hematoxylin, rinsed, dehydrated and cleared in series of ethanol and xylene and coverslipped.

Data set [4] can be described thus: Plasma substance P (SP) by ELISA. Conditions: for increase in circulating SP vs time-matched control: erlotinib. Format: in vivo, Sprague-Dawley rats. As for the experimental part:
Experiments on animals were conducted in accordance with the principles given in the US Department of Health and Human Services Guide for the Care and Use of Laboratory Animals and were approved by The George Washington University Institutional Animal Care and Use Committee. Male Sprague-Dawley rats (125-150 g) were purchased from Hilltop Lab Animals, Inc. (Scottdale, Pa.). After 1 week of quarantine, all age-matched rats were placed on an ad libitum Mg normal diet (25 mmole magnesium oxide/kg food regarded as 100% recommended daily allowance for rodents) obtained from Harlan-Teklad (Madison, Wis.) containing extracted casein as the diet base supplemented with essential vitamins and nutrients; or the same diet supplemented with erlotinib (OSI Pharmaceuticals, LLC, Northbrook, Ill. 60062, USA) to obtain a starting dose of 10 mg/kg/day, Emend® (as aprepitant, Merck & Co., INC. USA) to obtain a starting dose of 2 mg/kg/day, or both agents at these doses. Individually-housed rats were weighed and food consumption recorded daily to obtain actual drug dosage: time-range average erlotinib dose over 9 weeks was 7.07 mg/kg/day, and time-range average Emend dose over 9 weeks was 1.41 mg/kg/day. Rats had free access to distilled-deionized water, and were on a 12 h light/dark cycle for up to 9 weeks.
as §1
A general note: ELISA stands for enzyme-linked immunosorbent assay.

Setting [5] is: 9 weeks, Emend co-treatment with erlotinib.

`C[C@@H](O[C@H]1OCCN(Cc2n[nH]c(=O)[nH]2)[C@H]1c1ccc(F)cc1)c1cc(C(F)(F)F)cc(C(F)(F)F)c1` [Emend, aprepitant]: the “food consumption compared to controls” value in data set [1] is recorded as “Neither ERL nor Emend affected food consumption”. Also, in data set [2] (setting [5]), the “effect on erlotinib-caused increase in basal superoxide generating activity” value was “completely prevented” and the “effect on erlotinib-caused increase in stimulated superoxide generating activity” value is given as “completely prevented”. Also, the “effect on neutrophil superoxide activity” value in data set [2] (rat, in vivo) was “no effects”. Moreover, in data set [3] (9 wk, Emend co-treatment with erlotinib), the “nitro-tyrosine formation in the ventricles” value was “visibly attenuated”. In data set [3] (rat, in vivo), the nitro-tyrosine formation entry is given as “did not have any effect”. The “effect on erlotinib-induced increases in SP” value in data set [4] (Emend co-treatment with erlotinib) is “almost completely blocked”.
For `C#Cc1cccc(Nc2ncnc3cc(OCCOC)c(OCCOC)cc23)c1` [Erlotinib, erlotinib], the “food consumption compared to controls” value in data set [1] was “Neither ERL nor Emend affected food consumption”. In addition, the “neutrophil basal superoxide generating activity, higher than control” value in data set [2] (rat, in vivo) was 3 fold. Besides, in data set [3] (9 wk of Erlotinib treatment), the “cardiac nitro-tyrosine (NT) presence, immunohistochemical staining” value is “substantial perivascular and diffused NT presence”. The “increase in circulating SP vs time-matched control” value in data set [4] (week 3, p<0.05) came to 27.3%; in data set [4] (week 5, NS), 12.3%; in data set [4] (week 9, p<0.01) it was 25.4%.
